# Laboratory results from ChEMBL document CHEMBL5665443, “Enzyme Inhibitor Single Concentration assay results for EUbOPEN Chemogenomics Library” (2024).
# Legend:
# [1] = target: T1, Endonuclease III-like protein 1 (Homo sapiens) (UniProt P78549); settings: Compound Concentration 10.0 uM, Hit No;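 also: enzyme assay tracking NTHL1 cutting and release of a quenched double-stranded DNA oligo substrate, read as fluorescence at 594 nm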
# T1 sequence (whole entry): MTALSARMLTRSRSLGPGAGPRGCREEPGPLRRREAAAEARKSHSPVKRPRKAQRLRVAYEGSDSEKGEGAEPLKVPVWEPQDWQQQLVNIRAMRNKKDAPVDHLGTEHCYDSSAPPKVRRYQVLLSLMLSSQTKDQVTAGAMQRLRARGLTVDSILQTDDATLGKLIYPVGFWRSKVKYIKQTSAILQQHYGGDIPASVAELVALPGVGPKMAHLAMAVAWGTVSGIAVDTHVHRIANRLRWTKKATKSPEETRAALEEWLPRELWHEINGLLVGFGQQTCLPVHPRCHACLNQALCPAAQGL
# Description: Inhibition of NTHL1 by quantifying inhibition of NTHL1-mediated cleavage and dissociation of quenched duplex DNA oligonucleotides, measured as fluorescence at 594 nm.
# [2] = target: DNA-3-methyladenine glycosylase (Homo sapiens) (UniProt P29372); settings: Compound Concentration 10.0 uM, Hit No;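 also: enzyme assay where MPG cuts a quenched duplex DNA oligonucleotide probe, paired with APE1 for strand incision and turnover, read as fluorescence at 594 nm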
# Sequence of DNA-3-methyladenine glycosylase (Homo sapiens) (P29372 whole entry): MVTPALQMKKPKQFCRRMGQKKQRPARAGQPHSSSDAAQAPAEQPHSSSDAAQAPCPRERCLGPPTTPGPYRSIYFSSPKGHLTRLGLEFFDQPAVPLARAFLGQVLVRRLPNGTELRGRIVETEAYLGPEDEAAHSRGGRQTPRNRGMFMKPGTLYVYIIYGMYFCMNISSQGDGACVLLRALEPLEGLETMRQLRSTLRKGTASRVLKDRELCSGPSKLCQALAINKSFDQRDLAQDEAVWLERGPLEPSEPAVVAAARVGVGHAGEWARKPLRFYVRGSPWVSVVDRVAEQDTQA
# Description: Inhibition of MPG by quantifying inhibition of MPG-mediated cleavage and dissociation of quenched duplex DNA oligonucleotides, measured as fluorescence at 594 nm. To generate a functional strand incision and increase turn-over this assay is coupled to APE1.
# [3] = target: G/T mismatch-specific thymine DNA glycosylase (Homo sapiens) (UniProt Q13569); settings: Compound Concentration 10.0 uM, Hit No;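 also: human TDG cleavage of quenched duplex DNA oligonucleotides coupled to APE1, strand release read as fluorescence at 594 nm, inhibition of TDG activity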
# Sequence of G/T mismatch-specific thymine DNA glycosylase (Homo sapiens) (Q13569 whole entry): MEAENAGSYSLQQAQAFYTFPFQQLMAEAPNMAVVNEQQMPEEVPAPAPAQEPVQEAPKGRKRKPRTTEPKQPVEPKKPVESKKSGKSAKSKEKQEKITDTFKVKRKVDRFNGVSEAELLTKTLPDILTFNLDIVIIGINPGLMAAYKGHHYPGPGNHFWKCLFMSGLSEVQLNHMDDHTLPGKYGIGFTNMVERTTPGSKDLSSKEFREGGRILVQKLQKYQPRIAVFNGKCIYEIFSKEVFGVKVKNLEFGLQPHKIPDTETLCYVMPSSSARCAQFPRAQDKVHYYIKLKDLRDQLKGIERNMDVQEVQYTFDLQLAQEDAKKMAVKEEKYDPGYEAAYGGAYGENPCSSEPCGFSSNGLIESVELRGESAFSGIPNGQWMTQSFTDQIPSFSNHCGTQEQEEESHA
# Description: Inhibition of TDG by quantifying inhibition of TDG-mediated cleavage and dissociation of quenched duplex DNA oligonucleotides, measured as fluorescence at 594 nm. To generate a functional strand incision and increase turn-over this assay is coupled to APE1.
# [4] = target: Uracil-DNA glycosylase (Homo sapiens) (UniProt P13051); settings: Compound Concentration 10.0 uM;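 also: UNG excision on a quenched double-stranded DNA oligo probe, with APE1 added for strand incision and turnover, read as fluorescence at 594 nm as strands separate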
# Sequence of Uracil-DNA glycosylase (Homo sapiens) (P13051 whole entry): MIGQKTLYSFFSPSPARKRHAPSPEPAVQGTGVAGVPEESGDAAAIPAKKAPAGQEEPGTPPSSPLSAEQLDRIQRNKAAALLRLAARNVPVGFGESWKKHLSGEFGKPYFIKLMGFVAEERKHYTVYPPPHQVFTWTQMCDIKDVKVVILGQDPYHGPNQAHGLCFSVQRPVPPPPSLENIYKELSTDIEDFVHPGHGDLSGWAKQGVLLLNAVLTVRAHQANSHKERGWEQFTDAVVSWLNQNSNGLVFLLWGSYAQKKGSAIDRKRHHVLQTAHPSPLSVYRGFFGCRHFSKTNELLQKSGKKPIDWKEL
# Description: Inhibition of UNG by quantifying inhibition of UNG-mediated cleavage and dissociation of quenched duplex DNA oligonucleotides, measured as fluorescence at 594 nm. To generate a functional strand incision and increase turn-over this assay is coupled to APE1.
# [5] = target: T2, Endonuclease 8-like 2 (Homo sapiens) (UniProt Q969S2); settings: Compound Concentration 10.0 uM, Hit No;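 also: fluorescence at 594 nm reports NEIL2 cutting and release of a quenched double-stranded DNA oligo substrate, reduced signal read as inhibition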
# T2 sequence (whole entry): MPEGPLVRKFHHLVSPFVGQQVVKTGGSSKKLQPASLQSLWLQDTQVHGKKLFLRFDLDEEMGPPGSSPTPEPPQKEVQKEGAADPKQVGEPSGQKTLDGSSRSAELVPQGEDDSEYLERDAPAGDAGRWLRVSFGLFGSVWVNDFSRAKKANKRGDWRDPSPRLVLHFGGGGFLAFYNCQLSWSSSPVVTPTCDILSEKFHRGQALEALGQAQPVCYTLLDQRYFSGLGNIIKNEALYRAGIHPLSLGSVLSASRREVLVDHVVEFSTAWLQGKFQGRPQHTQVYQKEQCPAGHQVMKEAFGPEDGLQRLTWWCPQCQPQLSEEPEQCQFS
# Description: Inhibition of NEIL2 by quantifying inhibition of NEIL2-mediated cleavage and dissociation of quenched duplex DNA oligonucleotides, measured as fluorescence at 594 nm.
# [6] = target: T3, Single-strand selective monofunctional uracil DNA glycosylase (Homo sapiens) (UniProt Q53HV7); settings: Compound Concentration 10.0 uM, Hit No;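 also: enzymatic SMUG1 assay coupled with APE1, reading fluorescence at 594 nm released when a quenched double-stranded DNA oligonucleotide substrate is cleaved and separated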
# T3 sequence (whole entry): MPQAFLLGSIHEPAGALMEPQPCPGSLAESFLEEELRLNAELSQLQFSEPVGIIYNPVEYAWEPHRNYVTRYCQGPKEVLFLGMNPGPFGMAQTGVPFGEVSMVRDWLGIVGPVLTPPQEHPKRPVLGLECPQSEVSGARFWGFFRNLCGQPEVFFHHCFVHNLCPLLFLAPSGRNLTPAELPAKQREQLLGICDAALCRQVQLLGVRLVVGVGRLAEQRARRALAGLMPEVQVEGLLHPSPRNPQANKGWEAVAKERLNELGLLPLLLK
# Description: Inhibition of SMUG1 by quantifying inhibition of SMUG1-mediated cleavage and dissociation of quenched duplex DNA oligonucleotides, measured as fluorescence at 594 nm. To generate a functional strand incision and increase turn-over this assay is coupled to APE1.
# [7] = target: T4, Adenine DNA glycosylase (Homo sapiens) (UniProt Q9UIF7); settings: Compound Concentration 10.0 uM, Hit No;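 also: human MUTYH activity read as 594 nm fluorescence from cleavage and release of a quenched DNA duplex, coupled with APE1 for strand incision, lower signal meaning inhibition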
# T4 sequence (whole entry): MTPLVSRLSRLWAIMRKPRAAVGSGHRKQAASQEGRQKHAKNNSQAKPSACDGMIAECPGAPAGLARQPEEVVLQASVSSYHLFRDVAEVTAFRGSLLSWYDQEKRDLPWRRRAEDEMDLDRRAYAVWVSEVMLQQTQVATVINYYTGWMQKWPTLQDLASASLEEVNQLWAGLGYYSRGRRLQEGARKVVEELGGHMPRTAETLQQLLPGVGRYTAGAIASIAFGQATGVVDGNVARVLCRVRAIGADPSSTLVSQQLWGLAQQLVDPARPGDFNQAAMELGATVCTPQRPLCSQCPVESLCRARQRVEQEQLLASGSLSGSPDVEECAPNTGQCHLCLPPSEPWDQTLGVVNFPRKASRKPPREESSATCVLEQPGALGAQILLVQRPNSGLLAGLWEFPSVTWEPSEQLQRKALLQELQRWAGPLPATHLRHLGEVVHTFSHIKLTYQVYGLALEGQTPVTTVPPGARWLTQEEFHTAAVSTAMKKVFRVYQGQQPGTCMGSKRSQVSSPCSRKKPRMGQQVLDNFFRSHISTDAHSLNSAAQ
# Description: Inhibition of MUTYH by quantifying inhibition of MUTYH-mediated cleavage and dissociation of quenched duplex DNA oligonucleotides, measured as fluorescence at 594 nm. To generate a functional strand incision and increase turn-over this assay is coupled to APE1.
# [8] = target: N-glycosylase/DNA lyase (Homo sapiens) (UniProt O15527); settings: Compound Concentration 10.0 uM, Hit No;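 also: OGG1 cleavage of a quenched duplex DNA oligonucleotide, coupled to APE1 for strand incision, read as fluorescence at 594 nm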
# Sequence of N-glycosylase/DNA lyase (Homo sapiens) (O15527 whole entry): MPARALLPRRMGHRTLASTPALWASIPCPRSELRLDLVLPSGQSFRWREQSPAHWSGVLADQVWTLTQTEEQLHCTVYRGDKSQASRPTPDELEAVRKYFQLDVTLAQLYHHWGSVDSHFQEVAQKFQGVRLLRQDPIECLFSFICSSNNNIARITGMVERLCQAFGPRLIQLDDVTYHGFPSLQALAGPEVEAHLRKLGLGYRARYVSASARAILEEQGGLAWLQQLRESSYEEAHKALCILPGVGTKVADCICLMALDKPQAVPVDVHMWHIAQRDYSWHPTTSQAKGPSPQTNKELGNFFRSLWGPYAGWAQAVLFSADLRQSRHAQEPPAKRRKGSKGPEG
# Description: Inhibition of OGG1 by quantifying inhibition of OGG1-mediated cleavage and dissociation of quenched duplex DNA oligonucleotides, measured as fluorescence at 594 nm. To generate a functional strand incision and increase turn-over this assay is coupled to APE1.
# [9] = target: Endonuclease 8-like 1 (Homo sapiens) (UniProt Q96FI4); settings: Compound Concentration 10.0 uM, Hit No;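 also: fluorescence at 594 nm from quenched duplex DNA oligonucleotides released by NEIL1 cleavage and strand separation, reported as reduction of this enzyme activity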
# Sequence of Endonuclease 8-like 1 (Homo sapiens) (Q96FI4 whole entry, the tested form may be a part): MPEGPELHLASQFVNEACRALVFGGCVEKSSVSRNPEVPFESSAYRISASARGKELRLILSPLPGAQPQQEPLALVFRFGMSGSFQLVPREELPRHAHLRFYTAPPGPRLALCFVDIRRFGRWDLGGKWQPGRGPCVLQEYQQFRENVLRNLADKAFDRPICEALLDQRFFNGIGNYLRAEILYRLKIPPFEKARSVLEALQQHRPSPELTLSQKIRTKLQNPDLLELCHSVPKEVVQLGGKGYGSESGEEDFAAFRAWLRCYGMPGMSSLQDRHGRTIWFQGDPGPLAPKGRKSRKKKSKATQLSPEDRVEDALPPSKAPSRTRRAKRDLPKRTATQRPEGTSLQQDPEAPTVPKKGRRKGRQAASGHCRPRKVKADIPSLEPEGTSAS
# Description: Inhibition of NEIL1 by quantifying inhibition of NEIL1-mediated cleavage and dissociation of quenched duplex DNA oligonucleotides, measured as fluorescence at 594 nm.
# [10] = target: Methyl-CpG-binding domain protein 4 (Homo sapiens) (UniProt O95243); settings: Compound Concentration 10.0 uM, Hit No;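 also: MBD4 activity read as fluorescence at 594 nm from cleavage and release of a quenched duplex DNA oligonucleotide, with APE1 coupled to incise the strand and raise turnover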
# Sequence of Methyl-CpG-binding domain protein 4 (Homo sapiens) (O95243 whole entry, the tested form may be a part): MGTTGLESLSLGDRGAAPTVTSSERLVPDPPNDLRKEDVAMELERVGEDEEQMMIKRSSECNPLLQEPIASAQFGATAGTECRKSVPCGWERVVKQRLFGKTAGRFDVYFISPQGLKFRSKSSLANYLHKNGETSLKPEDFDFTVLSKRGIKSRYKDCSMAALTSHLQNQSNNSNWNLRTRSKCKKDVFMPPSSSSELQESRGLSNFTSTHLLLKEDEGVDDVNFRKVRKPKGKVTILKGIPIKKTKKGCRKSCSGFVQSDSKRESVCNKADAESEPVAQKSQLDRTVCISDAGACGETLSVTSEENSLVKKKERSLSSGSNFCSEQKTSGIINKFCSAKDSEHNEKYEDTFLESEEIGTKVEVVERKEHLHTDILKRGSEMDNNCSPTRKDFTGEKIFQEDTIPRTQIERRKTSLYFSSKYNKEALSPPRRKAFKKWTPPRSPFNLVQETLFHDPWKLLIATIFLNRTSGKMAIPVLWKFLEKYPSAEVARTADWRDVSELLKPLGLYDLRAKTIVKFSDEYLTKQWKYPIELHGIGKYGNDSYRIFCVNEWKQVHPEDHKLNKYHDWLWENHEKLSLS
# Description: Inhibition of MBD4 by quantifying inhibition of MBD4-mediated cleavage and dissociation of quenched duplex DNA oligonucleotides, measured as fluorescence at 594 nm. To generate a functional strand incision and increase turn-over this assay is coupled to APE1.
SMILES,inhibition [1] [%],inhibition [2] [%],inhibition [3] [%],inhibition ([4]; Hit No) [%],inhibition [5] [%],inhibition [6] [%],inhibition [7] [%],inhibition [8] [%],inhibition [9] [%],inhibition [10] [%],inhibition ([4]; Hit Yes) [%]
CCOc1c2c(c(OCC)c3ncccc13)CN(c1ccc(CS(=O)(=O)NC(=O)Cc3ccccc3OC)cc1C)C2=O,7.05,-2.33,20.4,-8.19,2.01,-1.24,26.6,3.01,2.17,14.3,–
CCc1nc2c(o1)CC(c1ccc(C)cc1C)CC2=O (stereo not given),-4.39,23.6,16.4,0.136,6.53,5.18,-1.84,-9.46,6.08,17.2,–
CC1(C)[C@H]2C[C@H](C/C=C\CCCC(=O)O)[C@@H](NC(=O)c3csc4ccc(O)cc34)[C@@H]1C2,-3.21,9.36,20.1,-7.99,3.51,-7.2,14.6,3.96,13.3,19.3,–
O=C(Nc1ccccc1Br)N[C@@H]1CCN(c2ccc(C(F)(F)F)cn2)C1,6.35,35.3,27.5,2.31,2.71,15,26.9,3.57,-1.77,41.6,–
FC(F)(F)c1ccc(Nc2ncnc3cc(-c4ncccc4C(F)(F)F)ccc23)cc1,-4.39,12.8,25,1.01,2.71,19.7,26.4,5.12,11.7,18.4,–
CCCCc1nc2ccc(NC(=O)NC3CCCCC3)cc2n1Cc1ccc(-c2ccccc2C(=O)O)cc1,8.52,24,33.1,-9.57,11,-6.72,38.2,-1.26,9.29,30.2,–
NCC(O)c1ccc(O)cc1 (stereo not given),2.22,13.2,14.3,0.665,2.96,16,17.4,-0.921,3.71,41.7,–
O=C(c1cc(C2CC2)on1)N(C1CCCCC1)C1CCCCC1,10.5,42.7,14.9,-1.05,-3.92,-5.04,24.8,0.0968,0.306,8.05,–
Cc1cc(Cn2cnc3c2C[C@@H](C(=O)O)N(C(=O)C(c2ccccc2)c2ccccc2)C3)ccc1N(C)C,-6.87,19.4,25.8,-2.82,-0.733,7.18,20.9,5.17,10.3,46,–
Cc1cccc(NC(=O)CN2CCC(c3ccccn3)CC2)c1,12.1,7.82,12.4,-6.98,-0.35,0.438,18.5,0.0304,-1.77,8.44,–
COC[C@H](O)Cn1c(=O)cnn(-c2ccc(Cl)c(C(=O)NCC3(O)CCCCCC3)c2)c1=O,-8.51,19.8,9.08,-3.13,-2.64,-5.5,7.26,-7.67,1.64,2.28,–
O=C(O)COc1cccc(-c2ocnc2-c2nc(-c3ccccc3)c(-c3ccccc3)o2)c1,8.82,20.4,51,-2.35,-0.35,-6.12,65,18.4,1.64,49.9,–
N#Cc1ccc(NC(=O)Nc2ccccc2Br)c2nn[nH]c12,9.25,-2.94,26.3,-8.36,1.51,7.57,35.7,-1.34,0.686,21,–
CCCn1c(=O)c2nc(C34CC5CC(CC3C5)C4)[nH]c2n(CCC)c1=O,-8.34,-7.5,14.1,-9.84,12.2,5,6.8,-1.3,5.88,16.5,–
O=C1NCN(c2ccccc2)C12CCN(CCCOc1ccc(F)cc1)CC2,4.86,-9.19,13.9,-6.4,2.26,13.1,-5.23,-4.77,-1.54,6.25,–
CCCCC[C@H](O)/C=C/[C@H]1CCC(=O)[C@@H]1CCCCCCC(=O)O,1.19,6.97,11.4,-4.12,4.01,-3.08,15.9,3.78,1.28,17.3,–
CCn1cc(-c2ccnc3[nH]c(-c4cccc(CN(C)C)c4)cc23)c(-c2ccc(NC(=O)N(C)C)cc2)n1,2.18,62.9,49,–,23.1,24.3,78.6,14.9,-6.47,22.5,25
COc1ccc(OC)c(-c2ccc(NC(=O)c3ccncc3F)cc2)c1,-0.258,28,15.8,2.08,-1.37,24.3,-1.87,1.6,3.57,23.8,–
CCCCCN1C(=O)C2(COc3cc4c(cc32)OCO4)c2ccccc21 (stereo not given),18.7,32.6,18.1,-5.87,0.924,-6.34,13.2,1.71,0.00926,29,–
COc1cc(NC(=O)CCN2CCC(OC(=O)Nc3ccccc3-c3ccccc3)CC2)c(Cl)cc1CNC[C@H](O)c1ccc(O)c2[nH]c(=O)ccc12,9.99,7.51,16.7,-5.99,-2.98,0.984,11.4,-7.57,-7.76,-6.36,–
